Tests used:
[1] = Hydrolysis in pH buffer/EtOH solutions; assay type: physicochemical; conditions: 6-OAc-Oxy
[2] = Hydrolysis in HCl solutions; assay type: physicochemical; conditions: 6-OAc-Oxy
[3] = target: T1, μ-opioid receptor (Homo sapiens (Human), UniProt P35372); assay type: binding
[4] = target: T1, μ-opioid receptor; test: [35S]GTPγS μ-opioid receptor functional assay; assay type: biochemical
[5] = Hydrolysis in human blood serum at 37° C.; conditions: for 6-OAc-Oxy (%): 6-OAc-Oxy in human blood serum, 37° C.
[6] = Hydrolysis in simulated gastric fluid at 37° C.; conditions: 6-OAc-Oxy in simulated Gastric fluid
[7] = Hydrolysis in simulated intestinal fluid at 37° C.; conditions: for 6-OAc-Oxy (%): 6-OAc-Oxy in simulated intestinal fluid, 37° C.
[8] = pH = 7 buffer (1:1 EtOH:H2O), 0 hrs
[9] = pH = 7 buffer (1:1 EtOH:H2O), 0.5 hrs
[10] = pH = 7 buffer (1:1 EtOH:H2O), 2 hrs
[11] = pH = 7 buffer (1:1 EtOH:H2O), 26 hrs
[12] = pH = 8 buffer (1:1 EtOH:H2O), 0 hrs
[13] = pH = 8 buffer (1:1 EtOH:H2O), 0.5 hrs
[14] = pH = 8 buffer (1:1 EtOH:H2O), 2 hrs
[15] = pH = 8 buffer (1:1 EtOH:H2O), 26 hrs
[16] = pH = 9 buffer (1:1 EtOH:H2O), 0 hrs
[17] = pH = 9 buffer (1:1 EtOH:H2O), 0.5 hrs
[18] = pH = 9 buffer (1:1 EtOH:H2O), 4 hrs
[19] = pH = 9 buffer (1:1 EtOH:H2O), 8 hrs
[20] = pH = 9 buffer (1:1 EtOH:H2O), 22 hrs
[21] = pH = 10 buffer (1:1 EtOH:H2O), 0 hrs
[22] = pH = 10 buffer (1:1 EtOH:H2O), 0.5 hrs
[23] = pH = 10 buffer (1:1 EtOH:H2O), 2 hrs
[24] = pH = 10 buffer (1:1 EtOH:H2O), 4 hrs
[25] = pH = 11 buffer (1:1 EtOH:H2O), 0 hrs
[26] = pH = 11 buffer (1:1 EtOH:H2O), 0.5 hrs

For COc1ccc2c3c1OC1C(OC(C)=O)=CC[C@@]4(O)[C@@H](C2)N(C)CC[C@]314 (some centres unmarked) [6-acetyl oxycodone], the “6-OAc-Oxy (%)” value [1, 8] was 89.4%, the “Oxy (%)” value [1, 8] was 9.4% and the “6-OAc-Oxy (%)” value [1, 9] was 87.2%. For the same compound, the “Oxy (%)” value [1, 9] was 9.5%, the “6-OAc-Oxy (%)” value [1, 10] was 87.9% and the “Oxy (%)” value [1, 10] was 8.2%. The “6-OAc-Oxy (%)” value [1, 11] was 77.9%, the “Oxy (%)” value [1, 11] was 12.9% and the “6-OAc-Oxy (%)” value [1, 12] was 89.4%. The “Oxy (%)” value [1, 12] was 9.4%, the “6-OAc-Oxy (%)” value [1, 13] was 87.4% and the “Oxy (%)” value [1, 13] was 10.4%. For the same compound, the “6-OAc-Oxy (%)” value [1, 14] was 87.0%, the “Oxy (%)” value [1, 14] was 8.8% and the “6-OAc-Oxy (%)” value [1, 15] was 75.3%. For the same compound, the “Oxy (%)” value [1, 15] was 20.9%, the “6-OAc-Oxy (%)” value [1, 16] was 89.4% and the “Oxy (%)” value [1, 16] was 9.0%. The “6-OAc-Oxy (%)” value [1, 17] was 89.4%, the “Oxy (%)” value [1, 17] was 9.0% and the “6-OAc-Oxy (%)” value [1, 18] was 86.3%. The “Oxy (%)” value [1, 18] was 11.9%, the “6-OAc-Oxy (%)” value [1, 19] was 75.5% and the “Oxy (%)” value [1, 19] was 14.9%. The “6-OAc-Oxy (%)” value [1, 20] was 66.5%, the “Oxy (%)” value [1, 20] was 26.9% and the “6-OAc-Oxy (%)” value [1, 21] was 89.4%. The “Oxy (%)” value [1, 21] was 9.0%, the “6-OAc-Oxy (%)” value [1, 22] was 32.3% and the “Oxy (%)” value [1, 22] was 65.2%. For the same compound, the “6-OAc-Oxy (%)” value [1, 23] was 1.6%, the “Oxy (%)” value [1, 23] was 96.8% and the “6-OAc-Oxy (%)” value [1, 24] was 1.2%. The “Oxy (%)” value [1, 24] was 98.3%, the “6-OAc-Oxy (%)” value [1, 25] was 89.4% and the “Oxy (%)” value [1, 25] was 9.0%. For the same compound, the “6-OAc-Oxy (%)” value [1, 26] was 1.6%, the “Oxy (%)” value [1, 26] was 97.1% and the “6-OAc-Oxy (%)” value ([2]; 0.1N HCl solution, 0 hrs) was 89.4%. The “6-OAc-Oxy (%)” value ([2]; 0.1N HCl solution, 0.5 hrs) was 89.0%, the “Oxy (%)” value ([2]; 0.1N HCl solution, 0.5 hrs) was 6.43% and the “6-OAc-Oxy (%)” value ([2]; 0.1N HCl solution, 2 hrs) was 86.4%. For the same compound, the “Oxy (%)” value ([2]; 0.1N HCl solution, 2 hrs) was 7.8%, the “6-OAc-Oxy (%)” value ([2]; 0.1N HCl solution, 8 hrs) was 86.1% and the “Oxy (%)” value ([2]; 0.1N HCl solution, 8 hrs) was 9.5%. The “6-OAc-Oxy (%)” value ([2]; 0.1N HCl solution, 24 hrs) was 67.3%, the “Oxy (%)” value ([2]; 0.1N HCl solution, 24 hrs) was 30.1% and the “6-OAc-Oxy (%)” value ([2]; 1N HCl solution, 0 hrs) was 89.4%. The “6-OAc-Oxy (%)” value ([2]; 1N HCl solution, 0.5 hrs) was 81.5%, the “Oxy (%)” value ([2]; 1N HCl solution, 0.5 hrs) was 16.6% and the “6-OAc-Oxy (%)” value ([2]; 1N HCl solution, 2 hrs) was 61.0%. The “Oxy (%)” value ([2]; 1N HCl solution, 2 hrs) was 30.3%, the “6-OAc-Oxy (%)” value ([2]; 1N HCl solution, 4 hrs) was 42.0% and the “Oxy (%)” value ([2]; 1N HCl solution, 4 hrs) was 56.4%. For the same compound, the “6-OAc-Oxy (%)” value ([2]; 1N HCl solution, 8 hrs) was 18.2%, the “Oxy (%)” value ([2]; 1N HCl solution, 8 hrs) was 80.8% and the “6-OAc-Oxy (%)” value ([2]; 1N HCl solution, 24 hrs) was 1.7%. The “Oxy (%)” value ([2]; 1N HCl solution, 24 hrs) was 95.3%, the Ki [3] was 41 nM and the “Ki compared with that of oxycodone (in words)” value [3] was “comparable”. The EC50 [4] was 1690 nM, the “% Response Agonist” value ([4]; Conc. 3 μM, criteria ≥± 50%) was 62% and the “6-OAc-Oxy (%)” value ([5]; 0 hrs) was 89.4%. The “6-OAc-Oxy (%)” value ([5]; 0.083 hrs (5 min)) was 0.65%, the “6-OAc-Oxy (%)” value ([5]; 0.5 hrs) was 0.39% and the “hydrolysis in human blood serum (in words)” value ([5]; human blood serum (37° C.)) was “hydrolyzed quickly”. For the same compound, the “hydrolysis to oxycodone (in words)” value ([5]; human blood serum (37° C.), five minutes) was “mostly hydrolyzed to oxycodone”, the “6-OAc-Oxy (%)” value ([6]; 0 hrs) was 89.4% and the “6-OAc-Oxy (%)” value ([6]; 2 hrs) was 68.4%. The “6-OAc-Oxy (%)” value ([6]; 4 hrs) was 66.1%, the “6-OAc-Oxy (%)” value ([6]; 8 hrs) was 58.1% and the “6-OAc-Oxy (%)” value ([6]; 24 hrs) was 46.2%. The “6-OAc-Oxy (%)” value ([7]; 0 hrs) was 89.4%, the “6-OAc-Oxy (%)” value ([7]; 0.5 hrs) was 39.8% and the “6-OAc-Oxy (%)” value ([7]; 2 hrs) was 0.7%. For the same compound, the “6-OAc-Oxy (%)” value ([7]; 4 hrs) was 0.0% and the “time to hydrolyze releasing oxycodone” value ([7]; mixture in simulated intestinal fluid (37° C., pH 6.8, pancreatine)) was “less than 2 hours”.
